Results as given in US20170363637A1, “Method and Kit for Determining Risk of Preterm Birth and/or Birth of Low-Birth-Weight Baby” (HIROSHIMA UNIVERSITY, priority 2014, published 2017).

Assays:
[1] = system: C57Bl/6J mice infected with P.g. w83 strain; assay: Effect of Gal-3 inhibitor on preterm birth induced by dental infection of P.g. (gestational period); assay type: in vivo, mouse; conditions: 5 mg/kg N-Lac intraperitoneally at gestational ages of 12, 15 and 18 days
Method: Effect of a Gal-3 inhibitor, N-acetyllactosamine (N-Lac), on preterm birth induced by dental infection of P.g. was studied.
(§1) 8-wks-old female C57Bl/6J mice were infected with P.g. w83 strain via the pulp chambers of the first molars. After periapical granuloma, which serves as a persistent source of P.g., was established at 6wks post-infection, mating was started (P.g. group). A half of the mice in P.g. group was intraperitoneally administered with 5 mg/kg of N-Lac (Sigma-Aldrich) at the gestational ages of 12, 15 and 18 days (P.g./N-Lac group). Healthy pregnant mice without P.g. infection were used as a control (NC group). The gestational period was compared among the groups. At the gestational age of 17 days the placental tissues were harvested, and inflammatory cell infiltration (MΦ, neutrophils), damage of endothelial cells (CD31), and immunolocalization of factors promoting delivery (TNF-α, COX-2, and Gal-3) were compared among the groups.

[2] = system: placental tissues of P.g.-infected mice; assay: Histological and immunohistochemical observation of placental tissues at gestational age of 17 days; assay type: in vivo, mouse; conditions: placenta at gestational age of 17 days; P.g./N-Lac group vs P.g. group
Method: Immunohistochemical staining was performed in a conventional manner. As PMNL markers, MCA771GA (rat anti-neutrophils antibody, purchased from AbD Serotec (Raleigh, N.C., USA), 1:5000), rabbit monoclonal anti-COX-2 antibody (purchased from Cell Signaling Technology (Danvers, Mass., USA), 1:100), goat anti-TNF-α antibody (purchased from Santa Cruz Biotechnology, Inc. (Santa Cruz, Calif., USA), 1:50), and rat anti-galectin-3 antibody (purchased from BioLegend, Inc (San Diego, Calif., USA), 1:500) were used. A high polymer method (Histofine Max-PO; Nichirei Biosciences) was used for immunohistochemical staining of the markers. Specificity of the antibodies was ascertained by substituting PBS/serum for each antibody.
as §1, with “At the gestational age of 17 days the placental tissues were harvested, and inflammatory cell infiltration (MΦ, neutrophils), damage of endothelial cells (CD31), and immunolocalization of factors promoting delivery (TNF-α, COX-2, and Gal-3) were compared among the groups.” left out

HTR-8 cells [3] = assay: Effect of Gal-3 inhibitor on human placenta cell line stimulated with P.g.-LPS (Western-blotting); assay type: cell-based
Method: Human trophoblast cell line—HTR-8/Svneo cells were kindly gifted from Prof. Charles H. Graham (Queen's University, Canada). The cells were grown in RPMI 1640 media (Nissui Pharmaceutical Co., Tokyo, Japan) supplemented with 10% heat-inactivated FBS (Invitrogen) and 100 Uml penicillin-streptomycin (Gibco, Tokyo, Japan). For the experiments, cells were seeded at a density of 5×10^5 cells in 35 mm culture dishes. The cells were maintained at 37° C. in a normal atmosphere containing 5% CO2. The cells were stimulated by 1 μg/ml of P.g.-LPS (Invivogen, SanDiego, Calif., USA), expression of Gal-3 mRNA and Gal-3 levels in the culture media were measured at one, two, or three days after the stimulation.
HTR-8 cells were stimulated with P.g.-LPS (1 μg/ml) and N-Lac (10^−9 M and 10^−8 M), and the expression levels of Gal-3, TNF-α, COX-2 and IL-8 in the culture supernatants were measured by RT-PCR and Western-blotting.

HTR-8 cells [4] = assay: TNF-α stimulation of HTR-8 cells, Gal-3 production; assay type: cell-based, human; conditions: 10 ng/ml rhTNF-α; 2 days post-stimulation; P<0.01
Method: Gal-3 protein levels in the cell culture supernatants were analyzed by Human Galectin-3 Immunoassay (R&D Systems) as the manufacturer recommended. Statistical differences among the experimental groups were evaluated by analysis of T test using GraphPad Prism (version 6.0c, CA, USA) with the level of significance set at P<0.01**.
Effect of TNF-α, which is produced by P.g.-LPS stimulation, on Gal-3 production was studied.
Recombinant human TNF-α (rhTNF-α, purchased from R&D Systems (Minneapolis, Minn., USA)) was applied at 10 ng/ml to HTR-8 cells for 1, 2 or 3 days and the Gal-3 protein levels in the culture media were measured. The cell culture and measurement of the Gal-3 protein levels were performed in the same manner as in Example 6.

[5] = P.g.-LPS 1 μg/ml and N-Lac (10^−9 M and 10^−8 M)

Compound | preterm birth induced by P.g. ([1]; p<0.05) | average gestational period ([1]; P.g./N-Lac group, NC 20, P.g. 18.3) [days] | decrease of CD31 and expression of TNF-α, COX-2 and Gal-3 in placenta [2] | denature and detachment of the amnion membrane, denature and necrosis of the placenta, increase of inflammatory cell infiltration [2] | Gal-3 expression upregulated by the P.g.-LPS stimulation (HTR-8 cells [3]; [5]) | TNF-α expression upregulated by the P.g.-LPS stimulation (HTR-8 cells [3]; [5]) | expression of TNF-α (HTR-8 cells [3]; incubation with N-Lac (10^−9 M and 10^−8 M)) | Gal-3 protein level in culture media (HTR-8 cells [4])
CC(=O)N[C@H]1C(O)O[C@H](CO)[C@@H](O[C@@H]2O[C@H](CO)[C@H](O)[C@H](O)[C@H]2O)[C@@H]1O (some centres unmarked) [N-Lac, N-acetyllactosamine] | significantly suppressed preterm birth | 20.7 | improved | not observed | remarkably reduced | remarkably reduced | suppressed | 
TNF-α |  |  |  |  |  |  |  | significant increased
